# According to patent publication US20230295145A1, “PYRROLIDINE DERIVATIVES AND METHODS OF USE” (Genentech, Inc., priority 2020, published 2023):
# Read-outs that look alike come from different tables or passages of the source.
# Key:
# Assay type in all cases: cell-based
# [1] = biological target: T1, VHL (Homo sapiens, UniProt P40337); assay: VHL HEK-293 BRET Assay (VHL NanoBRET Target Engagement Assay); conditions: IC50 values measured in the presence of digitonin; HEK 293 RT VHL-NanoLuc stable cells; read-out: IC50 + Digi (μM)*
# T1 construct: expressed in transfected cells
# [2] = test system: ABC-1; assay: Cell Viability Assay (CellTiter-Glo); conditions: 5 days
# Method: (§1) Cell lines were cultured in RPMI-1640, 5% fetal bovine serum, and 2 mM glutamine in a humidified incubator maintained at 37° C. with 5% CO2. Cells were assessed with a Vi-CELL Cell Viability Analyzer (Beckman Coulter; Brea, CA); viability of at least 90% was required for screening. A Multidropä Combi Reagent Dispenser (Thermo Scientific; Waltham, MA) was used to plate cells into Falcons^â 384-well, black, clear-bottom plates (Catalog No. 353962; Corning; Tewksbury, MA) using seeding densities previous determined to achieve approximately 80% confluence at the final time point of the assay. The compounds were prepared at 1000× in advance using an Echo 555 liquid handler (Labcyte; Sunnyvale, CA) and stored in −80° C. until the day of compound addition. On the following day, cells were treated with compounds at final assay concentration 1 uM and 10 uM using a Bravo Automated Liquid-Handling Platform (Agilent; Santa Clara, CA). After 5 days, 25 mL CellTiter-Glo^â reagent was added using a MultiFloä Microplate Dispenser (BioTek; Winooski, VT). Cell lysis was induced by mixing for 30 minutes on an orbital shaker; plates were then incubated at room temperature for 10 minutes to stabilize the luminescent signal. Luminescence was read by a 2104 EnVision^â Multilabel Plate Reader (PerkinElmer; Waltham, MA).
# (§2) The data was processed using Genedata Screener^â, Version 15 (Genedata; Basel, Switzerland) to assess compound effects on viability. Compound treated wells were normalized to the median value of 14 DMSO control wells on the same 384 well plate.
# [3] = biological target: T1, VHL; assay: VHL HEK-293 BRET Assay (VHL NanoBRET Target Engagement Assay); conditions: HEK 293 RT VHL-NanoLuc stable cells; read-out: IC50
# Method: The VHL NanoBRET™ Target Engagement Assay analyzes the apparent affinity of test compounds for VHL in cells by competitive displacement of a VHL NanoBRET™ tracer reversibly bound to a NanoLuc® VHL fusion protein stably expressed in the cells.
# Test compounds were transferred to the assay plate (384 Well White Non-Binding Corning Assay Plates (Corning-3574)) using an Echo 555 Liquid Handler (Labcyte) in 2.5 nL increments and, as appropriate, intermediate stock concentrations of compounds, in order to prepare a titration series. 50 nL of control compound (10 mM; parental unlabeled VHL antagonist; see structure below) and 50 nL of DMSO (negative control) were dispensed into the appropriate control wells. DMSO was backfilled to a final volume of 50 nL as required. 50 nl per well of 1 mM VHL NanoBRET™ Tracer in DMSO (NanoBRET™ Tracer-PEG2-590 (see structure below)) was transferred into each well using an Echo 555 (ultimately yielding a final concentration of 1 uM). HEK 293 RT VHL-NanoLuc® stable cells were cultured in DMEM High Glucose with Pyruvate, 10% fetal bovine serum, 2 mg/mL of Geneticin Selective Antibiotic (50 mg/mL) and 2 mM HEPES (1 M). Cells were seeded in Opti-MEM (Life Technologies-11058-021), 1.7×10^5 cells/mL, 40 μl per well into the assay plate, centrifuged at 500 rpm for 30 seconds and incubated for 2 hours. Max Signal control wells consisted of DMSO only treated wells. Minimum Signal control wells contained of 10 uM parental unlabeled VHL antagonist (control compound—see structure below). 3× Complete Substrate plus Inhibitor Solution was prepared in Opti-MEM (consists of a 1:166 dilution of NanoBRET™ Nano-Glo® Substrate plus a 1:500 dilution of Extracellular NanoLuc® Inhibitor in Opti-MEM), and 20 ul was dispensed into each well of the 384-well plate and centrifuged at 1000 rpm for 1 minute, then incubated for 2 minutes at room temperature. Background Signal control wells were prepared without tracer for background correction steps.
# Plates were read using a PerkinElmer Envision Reader (model 2104-0020) equipped with Luminescence option (Mirror: BRET2 Enh (PE Barcode 659), Emission Filter: Omega 610LP (Barcode 504), 2nd Emission Filter: Umbelliferone 460 (Barcode 207), Measurement height: 6.5 mm, Measurement time: 1 s). The raw BRET ratio values were calculated by dividing the acceptor emission value (610 nm) by the donor emission value (460 nm) for each sample. To correct for background, the BRET ratio in the absence of tracer (average of no-tracer control samples) was subtracted from the BRET ratio of each sample. Raw BRET units were converted to milliBRET units (mBU) by multiplying each raw BRET value by 1,000. The normalized NanoBRET™ signal was calculated relative to the Max Signal control wells (DMSO treated control wells) and the Minimum Signal control wells. Percentage inhibition was calculated relative to the Minimum Signal control and Maximum Signal control wells. IC50 values were derived by four parameter curve fitting using the Robust method.
# [4] = test system: NCI-H23; assay: Cell Viability Assay (CellTiter-Glo); conditions: 5 days
# Method: as §1, §2
# [5] = test system: PANC-1; assay: Cell Viability Assay (CellTiter-Glo); conditions: 10 μM, 5 days
# Method: as §1, §2
# T1 sequence (P40337 whole entry): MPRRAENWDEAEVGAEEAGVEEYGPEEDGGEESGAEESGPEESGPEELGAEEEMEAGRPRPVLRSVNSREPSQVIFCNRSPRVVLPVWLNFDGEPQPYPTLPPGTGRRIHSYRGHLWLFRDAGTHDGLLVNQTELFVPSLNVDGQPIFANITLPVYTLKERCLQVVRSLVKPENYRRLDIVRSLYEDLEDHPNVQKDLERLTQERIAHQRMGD
IC50 [1] [µM],IC50 [3] [µM],Structure (SMILES),Normalized viability % DMSO ([2]; 10 μM) [% DMSO],Normalized viability % DMSO ([4]; 10 μM) [% DMSO],Normalized viability % DMSO ([4]; 1 μM) [% DMSO],Normalized viability % DMSO [5] [% DMSO],Normalized viability % DMSO ([2]; 1 μM) [% DMSO]
3.18,2.34,"CCc1onc(C)c1CNC(=O)[C@@H]1C[C@@H](O)CN1C(=O)[C@@H](n1cc(C2CC2)nn1)C(C)(C)C [Compound 405, (2S,4R)-1-[(2S)-2-(4-cyclopropyltriazol-1-yl)-3,3-dimethyl-butanoyl]-N-[(5-ethyl-3-methyl-isoxazol-4-yl)methyl]-4-hydroxy-pyrrolidine-2-carboxamide]",7.6,,,,
2.93,1.81,"CC(C)(C)[C@@H](C(=O)N1C[C@H](O)C[C@H]1C(=O)NC1CCc2c(Cl)cc(Cl)cc21)n1cc(C2CC2)nn1 (stereo partly drawn) [Compound 169, (2S,4R)-1-[(2S)-2-(4-cyclopropyltriazol-1-yl)-3,3-dimethyl-butanoyl]-N-(4,6-dichloroindan-1-yl)-4-hydroxy-pyrrolidine-2-carboxamide]",,39.3,,,
,,"CN1CC(CCNC(=O)[C@@H]2C[C@@H](O)CN2C(=O)[C@@H](n2cc(C3CC3)nn2)C(C)(C)C)CC1=O (stereo partly drawn) [Compound 236, (2S,4R)-1-[(2S)-2-(4-cyclopropyltriazol-1-yl)-3,3-dimethyl-butanoyl]-4-hydroxy-N-[2-(1-methyl-5-oxo-pyrrolidin-3-yl)ethyl]pyrrolidine-2-carboxamide]",,,18.7,,
,,"CC(C)(C)[C@@H](C(=O)N1C[C@H](O)C[C@H]1C(=O)NCC12CCCC(C1)C(=O)N2)n1cc(C2CC2)nn1 (stereo partly drawn) [Compound 110, (2S,4R)-1-[(2S)-2-(4-cyclopropyltriazol-1-yl)-3,3-dimethyl-butanoyl]-4-hydroxy-N-[(7-oxo-6-azabicyclo[3.2.1]octan-5-yl)methyl]pyrrolidine-2-carboxamide]",,,18.9,,
,,"Cn1c(CCNC(=O)[C@@H]2C[C@@H](O)CN2C(=O)[C@@H](n2cc(C3CC3)nn2)C(C)(C)C)nc2c(F)cccc21 [Compound 1131, (2S,4R)-1-[(2S)-2-(4-cyclopropyltriazol-1-yl)-3,3-dimethyl-butanoyl]-N-[2-(4-fluoro-1-methyl-benzimidazol-2-yl)ethyl]-4-hydroxy-pyrrolidine-2-carboxamide]",,,21.7,,
0.0142,0.01,"CC(C)(C)[C@@H](C(=O)N1C[C@H](O)C[C@H]1C(=O)NCc1ncc(-c2ccccc2)s1)n1cc(C2CC2)nn1 [Compound 140, (2S,4R)-1-[(2S)-2-(4-cyclopropyltriazol-1-yl)-3,3-dimethyl-butanoyl]-4-hydroxy-N-[(5-phenylthiazol-2-yl)methyl]pyrrolidine-2-carboxamide]",45.3,,,,
4.86,3.68,"CC(C)(C)[C@@H](C(=O)N1C[C@H](O)C[C@H]1C(=O)NC1CCN(c2ccc(Cl)c(Cl)c2)C1)n1cc(C2CC2)nn1 (stereo partly drawn) [Compound 463, (2S,4R)-1-[(2S)-2-(4-cyclopropyltriazol-1-yl)-3,3-dimethyl-butanoyl]-N-[1-(3,4-dichlorophenyl)pyrrolidin-3-yl]-4-hydroxy-pyrrolidine-2-carboxamide]",,,,35.6,
2.33,17.3,"CC(C)(C)[C@@H](C(=O)N1C[C@H](O)C[C@H]1C(=O)NCCCn1cnc2c(N)ncnc21)n1cc(C2CC2)nn1 [Compound 1129, (2S,4R)-N-[3-(6-aminopurin-9-yl)propyl]-1-[(2S)-2-(4-cyclopropyltriazol-1-yl)-3,3-dimethyl-butanoyl]-4-hydroxy-pyrrolidine-2-carboxamide]",4.2,,,,
0.0152,0.0114,"CC(C)(C)[C@@H](C(=O)N1C[C@H](O)C[C@H]1C(=O)NC(CO)c1ccc(Br)c(F)c1)n1cc(C2CC2)nn1 (stereo partly drawn) [Compound 174, (2S,4R)-N-[1-(4-bromo-3-fluoro-phenyl)-2-hydroxy-ethyl]-1-[(2S)-2-(4-cyclopropyltriazol-1-yl)-3,3-dimethyl-butanoyl]-4-hydroxy-pyrrolidine-2-carboxamide]",50.7,,,,
2.46,1.92,"CNC(=O)[C@@H]1C[C@@H](O)CN1C(=O)[C@@H](n1cc(-c2cnc(F)cc2C)nn1)C(C)(C)C [Compound 792, (2S,4R)-1-[(2S)-2-[4-(6-fluoro-4-methyl-3-pyridyl)triazol-1-yl]-3,3-dimethyl-butanoyl]-4-hydroxy-N-methyl-pyrrolidine-2-carboxamide]",13.9,,,,
5.86,2.91,"CNC(=O)C1CC(O)CN1C(=O)[C@@H](n1cc(C2CCC(C(=O)OC)CC2)nn1)C(C)(C)C (stereo in doubt) [Compound 829, Methyl 4-[1-[(1S)-1-[(2R,4S)-4-hydroxy-2-(methylcarbamoyl)pyrrolidine-1-carbonyl]-2,2-dimethyl-propyl]triazol-4-yl]cyclohexanecarboxylate]",,,,,10.6
2.17,0.802,"CC(C)(C)[C@@H](C(=O)N1C[C@H](O)C[C@H]1C(=O)NCCC1(O)CN(C(c2ccccc2)c2ccccc2)C1)n1cc(C2CC2)nn1 [Compound 449, (2S,4R)-N-[2-(1-benzhydryl-3-hydroxy-azetidin-3-yl)ethyl]-1-[(2S)-2-(4-cyclopropyltriazol-1-yl)-3,3-dimethyl-butanoyl]-4-hydroxy-pyrrolidine-2-carboxamide]",,43.4,,,
0.0321,0.0156,"CC(C)(C)[C@@H](C(=O)N1C[C@H](O)C[C@H]1C(=O)N[C@@H]1C[C@@H](c2ccccc2)Oc2ccccc21)n1cc(C2CC2)nn1 [Compound 343, (2S,4R)-1-[(2S)-2-(4-cyclopropyltriazol-1-yl)-3,3-dimethyl-butanoyl]-4-hydroxy-N-[(2S,4R)-2-phenylchroman-4-yl]pyrrolidine-2-carboxamide]",44.1,,,,
4.3,3.89,"CC(C)(C)[C@@H](C(=O)N1C[C@H](O)C[C@H]1C(=O)NCC1CCS(=O)(=O)c2ccccc21)n1cc(C2CC2)nn1 (stereo partly drawn) [Compound 420, (2S,4R)-1-[(2S)-2-(4-cyclopropyltriazol-1-yl)-3,3-dimethyl-butanoyl]-N-[(1,1-dioxo-3,4-dihydro-2H-thiochromen-4-yl)methyl]-4-hydroxy-pyrrolidine-2-carboxamide]",,,10.8,,
1.48,0.96,"CNC(=O)[C@@H]1C[C@@H](O)CN1C(=O)[C@@H](n1cc(COc2ccccc2F)nn1)C(C)(C)C [Compound 729, (2S,4R)-1-[(2S)-2-[4-[(2-fluorophenoxy)methyl]triazol-1-yl]-3,3-dimethyl-butanoyl]-4-hydroxy-N-methyl-pyrrolidine-2-carboxamide]",35.8,,7.4,,
22.2,17.2,"CC[S+]([O-])C1CCCCC1NC(=O)[C@@H]1C[C@@H](O)CN1C(=O)[C@@H](n1cc(C2CC2)nn1)C(C)(C)C (stereo partly drawn) [Compound 554, (2S,4R)-1-[(2S)-2-(4-cyclopropyltriazol-1-yl)-3,3-dimethyl-butanoyl]-N-(2-ethylsulfinylcyclohexyl)-4-hydroxy-pyrrolidine-2-carboxamide]",38.2,,,,
3,5.46,"CNC(=O)[C@@H]1C[C@@H](O)CN1C(=O)[C@@H](n1cc(Cn2cnc3cc(C)c(C)cc32)nn1)C(C)(C)C [Compound 914, (2S,4R)-1-[(2S)-2-[4-[(5,6-dimethylbenzimidazol-1-yl)methyl]triazol-1-yl]-3,3-dimethyl-butanoyl]-4-hydroxy-N-methyl-pyrrolidine-2-carboxamide]",,44.5,,,
